Measured values from US6337410B2, “Antibiotic TKR459, production method, and microorganism” (Takara Shuzo Co., Ltd., priority 1996, dated 2002).
In brackets after ≈: the same amount, converted by molar mass. Where two headings read alike, the source gives them in different places.

What was measured:
[1] = Solubility in solvents; type: physicochemical
[2] = system: Candida albicans TIMM0136; test: Antimicrobial spectrum, liquid medium dilution method; type: cell-based
Description: (§1) The TKR459 obtained was used to determine antimicrobial spectra against various microorganisms. The minimal inhibitory concentration (μg/ml) was measured by the liquid medium dilution method as the minimal concentration causing a substantially complete inhibition of micobial growth. The sub-minimal inhibitory concentration (μg/ml) was determined as the minimal concentration causing a partial inhibition of micobial growth and shown in the parentheses of Table 2. In the table, YNBG stands for a medium comprising 0.67% of yeast nitrogen base (manufactured by Difco) and 1.0% of glucose.

[3] = system: Cryptococcus neoformans TIMM0354; test: as above; type: cell-based
Description: as §1

[4] = system: Candida kefyr TIMM0301; test: as above; type: cell-based; conditions: for MIC: Kluyveromyces marxianus, Candida kefyr TIMM0301, YNBG medium
Description: as §1

[5] = system: ICR mice; test: Toxicity after intraperitoneal administration to ICR mice; type: in vivo; conditions: 100 mg/kg

With `CC(O)(CCCCCCCCCCCCCC1OC(O)C(N)C(O)C1O)CCC(=O)O` (stereo not drawn) [TKR459] the Solubility in chloroform ([1]; chloroform) was “sparingly soluble”, the Solubility in hexane ([1]; hexane) was “sparingly soluble” and the Solubility in methanol ([1]; methanol) was “soluble”. The Solubility in water ([1]; water) was “soluble”, the MIC ([2]; Candida albicans TIMM0136, YNBG medium, substantially complete inhibition of growth, read-out: Minimal inhibitory concentration) was 0.78 mg/L (≈ 1.74 µM) and the Antifungal activity ([2]; Candida albicans, summary of Table 2) was “active”. The MIC ([3]; Cryptococcus neoformans TIMM0354, YNBG medium, substantially complete inhibition of growth, read-out: Minimal inhibitory concentration) was 3.13 mg/L (≈ 6.99 µM), the Antifungal activity ([3]; Cryptococcus neoformans, summary of Table 2) was “active” and the Antifungal activity ([4]; Candida kefyr, summary of Table 2) was “active”. The MIC ([4]; minimal concentration causing partial inhibition of growth, read-out: Sub-minimal inhibitory concentration (in parentheses)) was 0.39 mg/L (≈ 0.871 µM), the MIC ([4]; substantially complete inhibition of growth, read-out: Minimal inhibitory concentration) was 0.78 mg/L (≈ 1.74 µM) and the Toxic signs [5] was “no toxic signs”.
